Test results from patent US20240092779A1, “USP1 INHIBITORS AND USES THEREOF” (Zentaur Therapeutics USA Inc., priority 2022, published 2024).
Converted amounts (≈) assume the structure as drawn.

What was measured:
[1] = Liver microsomal stability (HLM); type: in vitro ADME; details: human, liver microsomes, human liver microsomes 0.5 mg/mL, 1 μM compound, NADPH
Method: Liver Microsomal Stability
Certain Compounds of the Disclosure were assessed for ADME metabolic stability in human liver microsomes (HLM).
Samples were prepared by adding 222.5 μL of a master solution (100 mM phosphate buffer and 0.5 mg/mL liver microsomes (HLM)) and 25 μL of a 10 mM NADPH solution to incubation plates, which were then warmed for 10 min. Each compound was separately dissolved in DMSO to prepare 10 mM stock solutions, which were then diluted to 100 μM with acetonitrile. A reaction was started by adding 2.5 μL of the […] solution of each compound to separate incubation plates such that the final concentration of for each compound in each plate was 1 μM. Aliquots of 30 μL were taken from the reaction solution at 0.5, 5, 15, 30 and 60 minutes. The reaction was stopped by the addition of 5 volumes of cold acetonitrile with IS (100 nM alprazolam, 200 nM caffeine and 100 nM tolbutamide). Aliquot of 100 μL of the supernatant was diluted by 100 μL ultra-pure water, and the mixture was used for LC/MS/MS analysis. Peak areas were determined from extracted ion chromatograms. […]. The percentage of remaining parent was calculated from peak area of test compound or PC. The slope value, k, is determined by linear regression of the natural logarithm of percent parent remaining vs. incubation time curve. All calculations are carried out using Microsoft Excel.
The in vitro half-life (in vitro t1/2) is determined from the slope value:
Conversion of the in vitro t1/2 (in min) into the in vitro intrinsic clearance (in vitro CLint, (HLM Clint (μL/min/mg proteins))) is done using the following equation: […]
A: HLM Clint <10 μL/min/mg; B: 10 μL/min/mg≤HLM Clint <50 μL/min/mg; C: HLM Clint ≥50 μL/min/mg.

[2] = Solubility in FaSSIF (Fasted State Simulated Intestinal Fluid); type: physicochemical; details: kinetic from dmso stock, FaSSIF pH 6.5, 25° C.
Method: Solubility in FaSSIF (Fasted State Simulated Intestinal Fluid)
Certain Compounds of the Disclosure were assessed for the apparent solubility in FaSSIF.
0.420 g of NaOH, 3.438 g of NaH2PO4 and 6.186 g of NaCl were dissolved into about 900 mL ultrapure water. The solution was adjusted to the pH of 6.5 with 1N NaOH or 1N HCl. The solution was then diluted with ultrapure water to 1000 mL at room temperature. The resulting solution is used as buffer solution.
2.240 g of FaSSIF Powder was added to about 500 mL of above-mentioned buffer solution. The solution was stirred until powder was completely dissolved. Then the solution was diluted with buffer A to 1000 mL at room temperature. This solution is FaSSIF to be used in the following experiment.
15 μL of stock solution (10 mM) of each sample was placed into their proper 96-well rack. 485 μL of FaSSIF was added into each vial of the cap-less solubility sample plate. One stir stick was added to each vial and the vial was sealed using a molded PTFE/Silicone plug. The solubility sample plate was transferred to the Eppendorf Thermomixer Comfort plate shaker and shaked at 25° C. at 1100 RPM for 2 hours. After completion of the 2 hours, the stir sticks using a big magnet were removed. The samples from the solubility sample plate were transferred into the filter plate. Using the vacuum manifold, all the samples are filtered. Aliquot of 5 μL was taken from filtrate followed by addition of 5 μL DMSO and 490 μL of a mixture of H2O and acetonitrile containing internal standard (1:1).
3 μM Standards solution (STD) was prepared from the 10 mM DMSO STD plate.as following: transferring 6 μL into the remaining empty plate, adding 194 μL of DMSO to that plate to have a STD concentration of 300 μM. From the 300 μM DMSO STD plate, 5 μL solution was transferred into the remaining empty plate. Addition of 5 μL PBS and 490 μL of a mixture of H2O and acetonitrile containing internal standard (1:1) to that plate furnished a final STD concentration of 3 μM STD solution.
The samples are analyzed and quantified against the standard of known concentration using LC/MS/MS, calculating the solubility of the test compound as following (DF means the dilution factor):
[Sample solubility in FsSSIF (04)]=Area Ratio sample×DF sample×[STD]/Area Ratio STD

[3] = test system: HCC1806 Ub-PCNA (USP1); assay: USP1 Western Blot Protocol (HCC1806 Ub-PCNA); type: cell-based; details: Homo sapiens, HCC1806 cells, 4 hours
From the text: USP1 Western Blot Protocol (HCC1806 Ub-PCNA)
USP1 is a deubiquitinase that catalyze the hydrolysis of iso-peptide bond between ubiquitin and the substrate proteins. Inhibition of USP1 activity results in accumulation of mono-ubiquitinated substrate such as Ub-PCNA. A cell assay was set up to determine the cellular potency of USP1 compounds by monitoring the accumulation of Ub-PCNA. The signal intensity was detected by a specific Ub-PCNA antibody through Western-blot analysis.
The assay was initiated by seeding HCC1806 cells (ATCC, CRL-2335) into 6-well plates (Corning, 3516), with a seeding density of 3×10^5 cells per well and 2 mL RPMI 1640 culture medium (Gibco, 11875119). The plates were incubated overnight at 37° C. and 5% CO2. Compounds, solubilized in DMSO (Solarbio, D8371) as 1 mM stock solution, were diluted in 4-fold steps for 5-cencentration point dose response plus a no-compound DMSO control. Diluted compounds (2 μL) were transferred into assay wells (with a final DMSO concentration of −0.1%) and the resulted assay plates incubated at 37° C. and 5% CO2 for 4 hours. After aspiration of culture medium, 100 μL of 4° C. RIPA lysis buffer (Boston BioProducts, BP-115D) supplemented with vendor recommended concentrations of protease (Roche, 4693116001) and phosphatase (Roche, 4906837001) inhibitor, was added to each well and incubated for 10 minutes on the ice. Cells were scrapped loose from the bottom of well with a scraper (Corning, 3008), transferred into a 600 μL EP tube, sonicated using Ultrasound (Qsonica, Q800R3, with 30% energy, 5-second pulse on/off cycles at 4° C., for total 2 minutes), centrifuged 13,000 rpm for 15 minutes at 4° C., and then the supernatant transferred to a new 600 μL EP tube. The total protein concentration was determined using BCA kit following vendor recommended protocol (Solarbio, PC0020-500). Loading samples were prepared by diluting the total protein concentration to 1.5 μg/μL with 5 X NuPAGE SDS loading buffer (Beyotime, P0015L) and RIPA lysis buffer, and boiling at 100° C. for 5 minutes.
15 μg protein from each sample was loaded onto NuPAGE® Novex 4-12% Bis-Tris Midi Gel, 26 W (Invitrogen, WG1403BOX) and electrophoresis was run at 80 V for 30 minutes and 120 V till the end using 1x NuPAGE® MOPS SDS Running Buffer (Novex, NP0001). The gel was then transferred to nitrocellulose membrane using the dry transfer system (iBlot 2 Transfer Stacks, nitrocellulose, D323001) with a program consisting of 20 V for 1 minute, 23 V for 4 minutes and 25 V for 2 minutes. After the membrane was blocked with 5% BSA (Solarbio, A8020) in 1X TBST (CST, 9997S) for 1 hour at room temperature, specific antibodies (Ubiquityl-PCNA antibody (CST, 13439) at 1:500 dilution, PCNA antibody (Santa Cruz, sc-56) at 1:1000 dilution, and GAPDH (CST, 5174) at 1:2000 dilution in 1 X TBST containing 1% BSA) were added and incubated at room temperature for 1.5 hours. After washing the Nitrocellulose membranes with 1 X TBST for 3 times, 10 minutes each time at room temperature, fluorescently labeled secondary antibodies (anti-rabbit IgG, Licor, 926-32211; anti-mouse IgG, LI-COR, 926-68070) at 1:5000 dilution in 1 X TBST containing 1% BSA were added and incubated for 1 hour at room temperature in the dark. The membranes were then rinsed with 1 X TBST and immersed in the RO water. Imaging of band intensity was acquired with Li—COR imaging system (Li—COR, Odyssey clx ES).
Percentage of USP1 inhibition (% Vehicle) was calculated by using following equation examining Ub-PCNA upregulation:
And IC50 was calculated using four-parameter logistic fitting program • Y=Bottom+(Top-Bottom)/(1+10 {circumflex over (()}(LogIC50−X)*Hill Slope)) • X=Log of dose or concentration
(§1) Certain compounds were tested in the assays.

[4] = test system: MDA-MB-436 cells; assay: CTG Protocol (MDA-MB-436 GI50), antiproliferative activity; type: cell-based, human; details: Homo sapiens, 168 h; MDA-MB-436 cells (BRCA1 mutation), 7-day incubation, CellTiter-Glo
Method: CTG Protocol (MDA-MB-436 GI50)
Antiproliferative activity of USP1 inhibitors was determined using breast cancer cell line MDA-MB-436 that harbors BRCA1 mutation. MDA-MB-436 cells (ATCC, HTB-130) was seeded with a seeding density of 1000 cells per well and 95 μL DMEM medium (Gibco, 10566016) into 96-well cell plates (Corning, 3610), and incubated overnight at 37° C. and 5% CO2. Compounds were solubilized in DMSO (Solarbio, D8371) as 10 mM stock solution, and then series diluted (3 folds) with DMSO for 9-point dose-response testing. The resulted series dilutions were then jump-diluted 50-fold by cell culture medium to afford the 20×stock solutions (containing 2% DMSO). Treatment was initiated by adding 5 μL of 20×stock solution to the assay plate and incubated at 37° C. and 5% CO2. At the end of 7-day incubation, cell assay plates were removed from incubation and equilibrated to room temperature (20 min). Then 100 μL of CellTiter-Glo (Promega, G9243) reagent, prepared per manufacturer's protocol, was added to each well, and the resulted plates were centrifuged 1,000 rpm for 1 minute, incubated at room temperature in the dark for 20 minutes, sealed with Perkin Elmer sticky film, and the luminescence signal read by Envision (Perkin Elmer).
Data analysis • a) % Inhibition was calculated using following equation: […]
X: compound concentration; Y: % Inhibition
as §1

SMILES: COc1ncnc(C2CC2)c1-c1ncc2cc(-c3cnn(C4CCN(C)CC4)c3)c(=O)n(Cc3ccc(-c4nc(C(F)(F)F)cn4C4CC4)cc3)c2n1 [Compound I-143]
- microsomal CLint at 1 μM [1]: 10 to 50 µL/min/mg
- solubility at 2 h [2]: ≥ 100 µM

SMILES: COc1ncnc(C2CC2)c1-c1ncc2cc(-c3c(C)cnn3C)c(=O)n(Cc3ccc(-c4nc(C(F)(F)F)cn4C4CC4)cc3)c2n1 [Compound I-133]
- microsomal CLint at 1 μM [1]: 10 to 50 µL/min/mg
- solubility at 2 h [2]: 10 to 100 µM (≈ 6.54 to 65.4 µg/mL)

SMILES: COc1ncnc(C2CC2)c1-c1ncc2cc(C3CCN(C)CC3)c(=O)n(Cc3ccc(-n4nc(C(F)(F)F)cc4C)cc3)c2n1 [Compound I-121]
- microsomal CLint at 1 μM [1]: < 10 µL/min/mg
- solubility at 2 h [2]: ≥ 100 µM

SMILES: COc1ncnc(C2CC2)c1-c1ncc2cc(-c3ncccn3)c(=O)n(Cc3ccc(-c4nc(C(F)(F)F)cn4C4CC4)cc3)c2n1 [Compound I-145]
- microsomal CLint at 1 μM [1]: < 10 µL/min/mg
- solubility at 2 h [2]: ≥ 100 µM

SMILES: COc1ncnc(C2CC2)c1-c1ncc2c(C)c(-c3cnn(C)c3)c(=O)n(Cc3ccc(-c4nc(C(F)(F)F)cn4C4CC4)cc3)c2n1 [Compound I-128]
- microsomal CLint at 1 μM [1]: < 10 µL/min/mg
- solubility at 2 h [2]: 10 to 100 µM (≈ 6.54 to 65.4 µg/mL)

SMILES: COc1ncnc(C2CC2)c1-c1ncc2cc(-c3cnn(C)c3)c(=O)n(Cc3ccc(-c4nc(C(F)(F)F)cn4C4CC4)cc3)c2n1 [Compound I-127]
- microsomal CLint at 1 μM [1]: < 10 µL/min/mg
- solubility at 2 h [2]: ≥ 100 µM

SMILES: COc1ncnc(C2CC2)c1-c1ncc2cc(C(C)(C)O)c(=O)n(Cc3ccc(-c4nc(C(F)(F)F)cn4C4CC4)cc3)c2n1 [Compound I-109]
- microsomal CLint at 1 μM [1]: < 10 µL/min/mg
- solubility at 2 h [2]: ≥ 100 µM

SMILES: COc1cc(Cn2c(=O)ccc3cnc(-c4c(OC)ncnc4C4CC4)nc32)ccc1-c1nc(C(F)(F)F)cn1C1CC1 [Compound I-124]
- microsomal CLint at 1 μM [1]: < 10 µL/min/mg
- solubility at 2 h [2]: 10 to 100 µM (≈ 5.9 to 59 µg/mL)

SMILES: COc1cc(Cn2c(=O)ccc3cnc(-c4c(OC)ncnc4C4CC4)nc32)cc(F)c1-c1nc(C(F)(F)F)cn1C(C)C [Compound I-22, 2-(4-cyclopropyl-6-methoxypyrimidin-5-yl)-8-({3-fluoro-4-[1-isopropyl-4-(trifluoromethyl)imidazol-2-yl]-5-methoxyphenyl}methyl)pyrido[2,3-d]pyrimidin-7-one]
- microsomal CLint at 1 μM [1]: 10 to 50 µL/min/mg
- solubility at 2 h [2]: ≥ 100 µM

SMILES: COc1ncnc(C2CC2)c1-c1ncc2cc(-c3cn[nH]c3)c(=O)n(Cc3ccc(-c4nc(C(F)(F)F)cn4C4CC4)cc3)c2n1 [Compound I-130]
- microsomal CLint at 1 μM [1]: < 10 µL/min/mg
- solubility at 2 h [2]: ≥ 100 µM

SMILES: COc1cc(Cn2c(=O)cnc3cnc(-c4c(OC)ncnc4C4CC4)nc32)ccc1-n1nc(C(F)(F)F)cc1OC [Compound I-123]
- microsomal CLint at 1 μM [1]: 10 to 50 µL/min/mg
- solubility at 2 h [2]: ≥ 100 µM

SMILES: [2H]C([2H])([2H])n1cc(C(F)(F)F)nc1-c1ccc(C([2H])([2H])n2c(=O)ccc3cnc(-c4c(OC)ncnc4C4CC4)nc32)cc1 [Compound I-37, 2-(4-Cyclopropyl-6-Methoxypyrimidin-5-Yl)-8-({4-[1-(2H3)Methyl-4-(Trifluoromethyl)Imidazol-2-Yl]Phenyl}(2H2)Methyl)Pyrido[2,3-d]Pyrimidin-7-One]
- IC50 [3]: 10 to 100 nM
- microsomal CLint at 1 μM [1]: 10 to 50 µL/min/mg
- GI50 [4]: 10 to 100 nM
